Values of other authors, collected in patent US20040247676A1, “Use of multi-layer controlled-release tablet comprising ropinirole for the manufacture of medicament for the treatment of fibromyalgia” (priority 2001, published 2004).
Counter-ions that a name gives are not always drawn.

Tested on: fibromyalgia
Conditions: immediate release formulation

CCCN(CCC)CCc1cccc2c1CC(=O)N2 [ropinirole hydrochloride]
effectiveness in the treatment of fibromyalgia: particularly effective
